# Measured values reported in patent US11826399B2, “Chlorotoxin agents and uses thereof” (Eisai Inc., priority 2017, dated 2023).
# Where “and” joins values, the source holds several entries; their conditions need not be identical. Equal values may be shown once.
# Test: Plasma and tissue distribution of Cryptophycin Payload and Cryptophycin Metabolite 1 after Cryptophycin Payload alone or with CTX in PC-3 xenograft nude mice (LC-MS/MS)
# Format: in vivo, mouse
# Description: For the present experiment, materials, methods, drugs and model were as described in Example 21. […] Following intravenous administration, whole blood samples were collected at predetermined time points via cardiac puncture (n=3 mice per time point). Blood samples were centrifuged to obtain plasma and subsequently stored at […] or lower pending analysis. Additionally, at each time point, kidney, liver, small intestine, brain, heart, and tumor were harvested by removing entire specimen from surrounding tissues (only a portion of liver and small intestine were removed). After removal, tissues were rinsed with normal saline solution (contents of small intestine were emptied) and blotted dry with clean adsorptive tissue. Once dried, the specimens were weighed and stored at −20° C. or lower pending analysis. […] Pharmacokinetic (PK) parameters were calculated. Mean plasma and tissue concentrations were used to calculate mean PK parameters. Skin and skeletal muscle which were not assessed due to difficulty of homogenization.
# Vehicle for single dose group was 10% ethanol, 5% Tween 80, 85% saline. Vehicle for combination treatment was 5% ethanol, 2.5% Tween 80, 92.5% saline.
# [1] = Brain, Payload 0.4 mg/kg + CTX 16 mg/kg IV
# [2] = Brain, Payload 0.4 mg/kg IV alone
# [3] = Heart, Payload 0.4 mg/kg + CTX 16 mg/kg IV
# [4] = Heart, Payload 0.4 mg/kg IV alone
# [5] = Kidney, Payload 0.4 mg/kg + CTX 16 mg/kg IV
# [6] = Kidney, Payload 0.4 mg/kg IV alone
# [7] = Liver, Payload 0.4 mg/kg + CTX 16 mg/kg IV
# [8] = Liver, Payload 0.4 mg/kg IV alone
# [9] = Payload 0.4 mg/kg + CTX 16 mg/kg IV, 0.083 h
# [10] = Payload 0.4 mg/kg + CTX 16 mg/kg IV, 0.5 h
# [11] = Payload 0.4 mg/kg + CTX 16 mg/kg IV, 1 h
# [12] = Payload 0.4 mg/kg + CTX 16 mg/kg IV, 2 h
# [13] = Payload 0.4 mg/kg + CTX 16 mg/kg IV, 6 h
# [14] = Payload 0.4 mg/kg + CTX 16 mg/kg IV, 24 h
# [15] = Payload 0.4 mg/kg IV alone, 0.083 h
# [16] = Payload 0.4 mg/kg IV alone, 0.5 h
# [17] = Payload 0.4 mg/kg IV alone, 1 h
# [18] = Payload 0.4 mg/kg IV alone, 2 h
# [19] = Payload 0.4 mg/kg IV alone, 6 h
# [20] = Payload 0.4 mg/kg IV alone, 24 h
# [21] = Plasma, Payload 0.4 mg/kg + CTX 16 mg/kg IV
# [22] = Plasma, Payload 0.4 mg/kg IV alone
# [23] = Small Intestine, Payload 0.4 mg/kg + CTX 16 mg/kg IV
# [24] = Small Intestine, Payload 0.4 mg/kg IV alone
# [25] = Tumor, Payload 0.4 mg/kg + CTX 16 mg/kg IV
# [26] = Tumor, Payload 0.4 mg/kg IV alone
compound,measurement,setting,value
COc1ccc(CC2NC(=O)C=CCC(C(C)C3OC3c3ccc(CN4CCN(CCC(C)(C)SC)CC4)cc3)OC(=O)C(CC(C)C)NC(=O)C(C)(C)CNC2=O)cc1Cl (stereo not drawn) [Cryptophycin Metabolite 1],AUC(0-t) of Cryptophycin Metabolite 1,[1],5.38 ng·h/g
same,tmax of Cryptophycin Metabolite 1,[1],2.00 h
same,AUC(0-t) of Cryptophycin Metabolite 1,[2],4.42 ng·h/g
same,tmax of Cryptophycin Metabolite 1,[2],0.08 h
same,AUC(0-inf) of Cryptophycin Metabolite 1,[3],620 ng·h/g
same,AUC(0-t) of Cryptophycin Metabolite 1,[3],616 ng·h/g
same,t1/2 of Cryptophycin Metabolite 1,[3],3.17 h
same,tmax of Cryptophycin Metabolite 1,[3],0.08 h
same,AUC(0-inf) of Cryptophycin Metabolite 1,[4],396 ng·h/g
same,AUC(0-t) of Cryptophycin Metabolite 1,[4],394 ng·h/g
same,t1/2 of Cryptophycin Metabolite 1,[4],3.06 h
same,tmax of Cryptophycin Metabolite 1,[4],0.08 h
same,AUC(0-t) of Cryptophycin Metabolite 1,[5],2720 ng·h/g
same,tmax of Cryptophycin Metabolite 1,[5],2.00 h
same,AUC(0-inf) of Cryptophycin Metabolite 1,[6],1750 ng·h/g
same,AUC(0-t) of Cryptophycin Metabolite 1,[6],1720 ng·h/g
same,t1/2 of Cryptophycin Metabolite 1,[6],3.99 h
same,tmax of Cryptophycin Metabolite 1,[6],0.50 h
same,AUC(0-inf) of Cryptophycin Metabolite 1,[7],2930 ng·h/g
same,AUC(0-t) of Cryptophycin Metabolite 1,[7],2900 ng·h/g
same,t1/2 of Cryptophycin Metabolite 1,[7],4.04 h
same,tmax of Cryptophycin Metabolite 1,[7],0.08 h
same,AUC(0-inf) of Cryptophycin Metabolite 1,[8],1870 ng·h/g
same,AUC(0-t) of Cryptophycin Metabolite 1,[8],1820 ng·h/g
same,t1/2 of Cryptophycin Metabolite 1,[8],4.77 h
same,tmax of Cryptophycin Metabolite 1,[8],0.08 h
same,"Concentration of Cryptophycin Metabolite 1, Brain, Mean",[9],0.622 ng/g
same,"Concentration of Cryptophycin Metabolite 1, Heart, Mean",[9],107 ng/g
same,"Concentration of Cryptophycin Metabolite 1, Kidney, Mean",[9],115 ng/g
same,"Concentration of Cryptophycin Metabolite 1, Liver, Mean",[9],1540 ng/g
same,"Concentration of Cryptophycin Metabolite 1, Plasma, Mean",[9],10.8 ng/mL
same,"Concentration of Cryptophycin Metabolite 1, Small Intestine, Mean",[9],10.4 ng/g
same,"Concentration of Cryptophycin Metabolite 1, Tumor, Mean",[9],2.61 ng/g
same,"Concentration of Cryptophycin Metabolite 1, Brain, Mean",[10],0.641 ng/g
same,"Concentration of Cryptophycin Metabolite 1, Heart, Mean",[10],94.9 ng/g
same,"Concentration of Cryptophycin Metabolite 1, Kidney, Mean",[10],252 ng/g
same,"Concentration of Cryptophycin Metabolite 1, Liver, Mean",[10],1000 ng/g
same,"Concentration of Cryptophycin Metabolite 1, Plasma, Mean",[10],8.10 ng/mL
same,"Concentration of Cryptophycin Metabolite 1, Small Intestine, Mean",[10],18.5 ng/g
same,"Concentration of Cryptophycin Metabolite 1, Tumor, Mean",[10],2.69 ng/g
same,"Concentration of Cryptophycin Metabolite 1, Brain, Mean",[11],1.07 ng/g
same,"Concentration of Cryptophycin Metabolite 1, Heart, Mean",[11],77.1 ng/g
same,"Concentration of Cryptophycin Metabolite 1, Kidney, Mean",[11],285 ng/g
same,"Concentration of Cryptophycin Metabolite 1, Liver, Mean",[11],1370 ng/g
same,"Concentration of Cryptophycin Metabolite 1, Plasma, Mean",[11],12.4 ng/mL
same,"Concentration of Cryptophycin Metabolite 1, Small Intestine, Mean",[11],26.9 ng/g
same,"Concentration of Cryptophycin Metabolite 1, Tumor, Mean",[11],3.90 ng/g
same,"Concentration of Cryptophycin Metabolite 1, Brain, Mean",[12],1.09 ng/g
same,"Concentration of Cryptophycin Metabolite 1, Heart, Mean",[12],87.9 ng/g
same,"Concentration of Cryptophycin Metabolite 1, Kidney, Mean",[12],370 ng/g
same,"Concentration of Cryptophycin Metabolite 1, Liver, Mean",[12],335 ng/g
same,"Concentration of Cryptophycin Metabolite 1, Plasma, Mean",[12],5.12 ng/mL
same,"Concentration of Cryptophycin Metabolite 1, Small Intestine, Mean",[12],21.8 ng/g
same,"Concentration of Cryptophycin Metabolite 1, Tumor, Mean",[12],9.66 ng/g
same,"Concentration of Cryptophycin Metabolite 1, Brain, Mean",[13],0.725 ng/g
same,"Concentration of Cryptophycin Metabolite 1, Heart, Mean",[13],43.7 ng/g
same,"Concentration of Cryptophycin Metabolite 1, Kidney, Mean",[13],191 ng/g
same,"Concentration of Cryptophycin Metabolite 1, Liver, Mean",[13],53.6 ng/g
same,"Concentration of Cryptophycin Metabolite 1, Plasma, Mean",[13],2.15 ng/mL
same,"Concentration of Cryptophycin Metabolite 1, Small Intestine, Mean",[13],14.8 ng/g
same,"Concentration of Cryptophycin Metabolite 1, Tumor, Mean",[13],12.2 ng/g
same,"Concentration of Cryptophycin Metabolite 1, Brain, Mean",[14],BLQ
same,"Concentration of Cryptophycin Metabolite 1, Heart, Mean",[14],0.763 ng/g
same,"Concentration of Cryptophycin Metabolite 1, Kidney, Mean",[14],9.65 ng/g
same,"Concentration of Cryptophycin Metabolite 1, Liver, Mean",[14],5.15 ng/g
same,"Concentration of Cryptophycin Metabolite 1, Plasma, Mean",[14],0.384 ng/mL
same,"Concentration of Cryptophycin Metabolite 1, Small Intestine, Mean",[14],4.02 ng/g
same,"Concentration of Cryptophycin Metabolite 1, Tumor, Mean",[14],10.8 ng/g
same,"Concentration of Cryptophycin Metabolite 1, Brain, Mean",[15],1.46 ng/g
same,"Concentration of Cryptophycin Metabolite 1, Heart, Mean",[15],87.1 ng/g
same,"Concentration of Cryptophycin Metabolite 1, Kidney, Mean",[15],225 ng/g
same,"Concentration of Cryptophycin Metabolite 1, Liver, Mean",[15],2710 ng/g
same,"Concentration of Cryptophycin Metabolite 1, Plasma, Mean",[15],23.6 ng/mL
same,"Concentration of Cryptophycin Metabolite 1, Small Intestine, Mean",[15],22.2 ng/g
same,"Concentration of Cryptophycin Metabolite 1, Tumor, Mean",[15],2.36 ng/g
same,"Concentration of Cryptophycin Metabolite 1, Brain, Mean",[16],0.895 ng/g
same,"Concentration of Cryptophycin Metabolite 1, Heart, Mean",[16],80.2 ng/g
same,"Concentration of Cryptophycin Metabolite 1, Kidney, Mean",[16],361 ng/g
same,"Concentration of Cryptophycin Metabolite 1, Liver, Mean",[16],499 ng/g
same,"Concentration of Cryptophycin Metabolite 1, Plasma, Mean",[16],8.37 ng/mL
same,"Concentration of Cryptophycin Metabolite 1, Small Intestine, Mean",[16],29.7 ng/g
same,"Concentration of Cryptophycin Metabolite 1, Tumor, Mean",[16],3.27 ng/g
same,"Concentration of Cryptophycin Metabolite 1, Brain, Mean",[17],0.983 ng/g
same,"Concentration of Cryptophycin Metabolite 1, Heart, Mean",[17],70.3 ng/g
same,"Concentration of Cryptophycin Metabolite 1, Kidney, Mean",[17],294 ng/g
same,"Concentration of Cryptophycin Metabolite 1, Liver, Mean",[17],310 ng/g
same,"Concentration of Cryptophycin Metabolite 1, Plasma, Mean",[17],6.46 ng/mL
same,"Concentration of Cryptophycin Metabolite 1, Small Intestine, Mean",[17],24.3 ng/g
same,"Concentration of Cryptophycin Metabolite 1, Tumor, Mean",[17],3.41 ng/g
same,"Concentration of Cryptophycin Metabolite 1, Brain, Mean",[18],0.887 ng/g
same,"Concentration of Cryptophycin Metabolite 1, Heart, Mean",[18],52.8 ng/g
same,"Concentration of Cryptophycin Metabolite 1, Kidney, Mean",[18],249 ng/g
same,"Concentration of Cryptophycin Metabolite 1, Liver, Mean",[18],194 ng/g
same,"Concentration of Cryptophycin Metabolite 1, Plasma, Mean",[18],4.32 ng/mL
same,"Concentration of Cryptophycin Metabolite 1, Small Intestine, Mean",[18],23.1 ng/g
same,"Concentration of Cryptophycin Metabolite 1, Tumor, Mean",[18],4.01 ng/g
same,"Concentration of Cryptophycin Metabolite 1, Brain, Mean",[19],0.412 ng/g
same,"Concentration of Cryptophycin Metabolite 1, Heart, Mean",[19],25.4 ng/g
same,"Concentration of Cryptophycin Metabolite 1, Kidney, Mean",[19],91.2 ng/g
same,"Concentration of Cryptophycin Metabolite 1, Liver, Mean",[19],37.2 ng/g
same,"Concentration of Cryptophycin Metabolite 1, Plasma, Mean",[19],1.86 ng/mL
same,"Concentration of Cryptophycin Metabolite 1, Small Intestine, Mean",[19],26.1 ng/g
same,"Concentration of Cryptophycin Metabolite 1, Tumor, Mean",[19],5.33 ng/g
same,"Concentration of Cryptophycin Metabolite 1, Brain, Mean",[20],BLQ
same,"Concentration of Cryptophycin Metabolite 1, Heart, Mean",[20],0.387 ng/g
same,"Concentration of Cryptophycin Metabolite 1, Kidney, Mean",[20],4.88 ng/g
same,"Concentration of Cryptophycin Metabolite 1, Liver, Mean",[20],7.89 ng/g
same,"Concentration of Cryptophycin Metabolite 1, Plasma, Mean",[20],0.141 ng/mL
same,"Concentration of Cryptophycin Metabolite 1, Small Intestine, Mean",[20],1.50 ng/g
same,"Concentration of Cryptophycin Metabolite 1, Tumor, Mean",[20],4.91 ng/g
same,AUC(0-inf) of Cryptophycin Metabolite 1,[21],53.2 ng·h/mL
same,AUC(0-t) of Cryptophycin Metabolite 1,[21],49.9 ng·h/mL
same,Cmax of Cryptophycin Metabolite 1,[21],12.4 ng/mL
same,t1/2 of Cryptophycin Metabolite 1,[21],6.24 h
same,tmax of Cryptophycin Metabolite 1,[21],1.0 h
same,AUC(0-inf) of Cryptophycin Metabolite 1,[22],40.7 ng·h/mL
same,AUC(0-t) of Cryptophycin Metabolite 1,[22],39.8 ng·h/mL
same,Cmax of Cryptophycin Metabolite 1,[22],23.6 ng/mL
same,t1/2 of Cryptophycin Metabolite 1,[22],4.57 h
same,tmax of Cryptophycin Metabolite 1,[22],0.083 h and 0.08 h
same,AUC(0-inf) of Cryptophycin Metabolite 1,[23],316 ng·h/g
same,AUC(0-t) of Cryptophycin Metabolite 1,[23],263 ng·h/g
same,t1/2 of Cryptophycin Metabolite 1,[23],9.18 h
same,tmax of Cryptophycin Metabolite 1,[23],1.00 h
same,AUC(0-inf) of Cryptophycin Metabolite 1,[24],314 ng·h/g
same,AUC(0-t) of Cryptophycin Metabolite 1,[24],302 ng·h/g
same,t1/2 of Cryptophycin Metabolite 1,[24],5.15 h
same,tmax of Cryptophycin Metabolite 1,[24],0.50 h
same,AUC(0-t) of Cryptophycin Metabolite 1,[25],259 ng·h/g
same,tmax of Cryptophycin Metabolite 1,[25],6.00 h
same,AUC(0-t) of Cryptophycin Metabolite 1,[26],117 ng·h/g
same,tmax of Cryptophycin Metabolite 1,[26],6.00 h
